{"source": "the supplement of paper PMC10307832", "experiment_in_all_cases": "relative viability (nuclei count vs DMSO), 5 days (fraction); higher = more cells survive", "key": {"[1]": {"compound": "COc1cc2nc(N3CCCN(C)CC3)nc(NC3CCN(Cc4ccccc4)CC3)c2cc1OC + Cc1nc(NC(=O)N2CCC[C@H]2C(N)=O)sc1-c1ccnc(C(C)(C)C(F)(F)F)c1 [Alpelisib] (partner 2 µM)", "in_short": "(§1)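 Lung cancer cell lines in 1536-well plates were dosed by pin tool the day after seeding, either with one drug alone or with a fixed anchor-drug dose plus five library-drug doses (not always all listed) in √10 steps. After 5 days, cells were fixed and their nuclei stained in one step (final 0.05% Triton X-100, 1% formaldehyde, 1 ug/ml Hoechst), then counted on 4× images. Relative viability is the nuclei count in treated wells divided by that in vehicle wells. Values are medians of duplicate plates.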"}, "AZD6482 + Bortezomib": {"compound": "Cc1cc([C@@H](C)Nc2ccccc2C(=O)O)c2nc(N3CCOCC3)cc(=O)n2c1 [AZD6482] + CC(C)C[C@H](NC(=O)[C@H](Cc1ccccc1)NC(=O)c1cnccn1)B(O)O [Bortezomib] (partner 0.002 µM)", "in_short": "as §1"}, "AZD6482 + Linsitinib": {"compound": "Cc1cc([C@@H](C)Nc2ccccc2C(=O)O)c2nc(N3CCOCC3)cc(=O)n2c1 [AZD6482] + C[C@]1(O)C[C@@H](c2nc(-c3ccc4ccc(-c5ccccc5)nc4c3)c3c(N)nccn32)C1 [Linsitinib] (partner 1 µM)", "in_short": "as §1"}, "[2]": {"compound": "COc1cc2nc(N3CCCN(C)CC3)nc(NC3CCN(Cc4ccccc4)CC3)c2cc1OC + O=C(c1cc(Cc2n[nH]c(=O)c3ccccc23)ccc1F)N1CCN(C(=O)C2CC2)CC1 [Olaparib] (partner 8 µM)", "in_short": "as §1"}}}
{"cell line": "NCI-H1755", "values": [{"measurement": "relative viability", "setting": "[1]; first compound 0.2 µM", "value": 0.979}, {"measurement": "relative viability", "setting": "[1]; first compound 0.6325 µM", "value": 0.844}, {"measurement": "relative viability", "setting": "[1]; first compound 2 µM", "value": 0.916}, {"measurement": "relative viability", "setting": "[1]; first compound 6.325 µM", "value": 0.871}, {"measurement": "relative viability", "setting": "AZD6482 + Bortezomib; first compound 0.08 µM", "value": 0.837}, {"measurement": "relative viability", "setting": "AZD6482 + Bortezomib; first compound 0.253 µM", "value": 0.962}, {"measurement": "relative viability", "setting": "AZD6482 + Bortezomib; first compound 0.8 µM", "value": 0.434}, {"measurement": "relative viability", "setting": "AZD6482 + Bortezomib; first compound 2.53 µM", "value": 0.639}, {"measurement": "relative viability", "setting": "AZD6482 + Bortezomib; first compound 8 µM", "value": 0.74}, {"measurement": "relative viability", "setting": "AZD6482 + Linsitinib; first compound 0.08 µM", "value": 0.87}, {"measurement": "relative viability", "setting": "AZD6482 + Linsitinib; first compound 0.253 µM", "value": 0.864}, {"measurement": "relative viability", "setting": "AZD6482 + Linsitinib; first compound 0.8 µM", "value": 0.75}, {"measurement": "relative viability", "setting": "AZD6482 + Linsitinib; first compound 2.53 µM", "value": 0.497}, {"measurement": "relative viability", "setting": "AZD6482 + Linsitinib; first compound 8 µM", "value": 0.467}, {"measurement": "relative viability", "setting": "[2]; first compound 0.2 µM", "value": 0.805}, {"measurement": "relative viability", "setting": "[2]; first compound 0.6325 µM", "value": 0.832}, {"measurement": "relative viability", "setting": "[2]; first compound 2 µM", "value": 0.85}, {"measurement": "relative viability", "setting": "[2]; first compound 6.325 µM", "value": 0.831}]}
{"cell line": "NCI-H2023", "values": [{"measurement": "relative viability", "setting": "[1]; first compound 0.2 µM", "value": 0.661}, {"measurement": "relative viability", "setting": "[1]; first compound 0.6325 µM", "value": 0.634}, {"measurement": "relative viability", "setting": "[1]; first compound 2 µM", "value": 0.714}, {"measurement": "relative viability", "setting": "[1]; first compound 6.325 µM", "value": 0.331}, {"measurement": "relative viability", "setting": "AZD6482 + Bortezomib; first compound 0.08 µM", "value": 0.984}, {"measurement": "relative viability", "setting": "AZD6482 + Bortezomib; first compound 0.253 µM", "value": 0.742}, {"measurement": "relative viability", "setting": "AZD6482 + Bortezomib; first compound 0.8 µM", "value": 0.874}, {"measurement": "relative viability", "setting": "AZD6482 + Bortezomib; first compound 2.53 µM", "value": 0.623}, {"measurement": "relative viability", "setting": "AZD6482 + Bortezomib; first compound 8 µM", "value": 0.679}, {"measurement": "relative viability", "setting": "AZD6482 + Linsitinib; first compound 0.08 µM", "value": 0.373}, {"measurement": "relative viability", "setting": "AZD6482 + Linsitinib; first compound 0.253 µM", "value": 0.337}, {"measurement": "relative viability", "setting": "AZD6482 + Linsitinib; first compound 0.8 µM", "value": 0.322}, {"measurement": "relative viability", "setting": "AZD6482 + Linsitinib; first compound 2.53 µM", "value": 0.199}, {"measurement": "relative viability", "setting": "AZD6482 + Linsitinib; first compound 8 µM", "value": 0.234}, {"measurement": "relative viability", "setting": "[2]; first compound 0.2 µM", "value": 0.424}, {"measurement": "relative viability", "setting": "[2]; first compound 0.6325 µM", "value": 0.476}, {"measurement": "relative viability", "setting": "[2]; first compound 2 µM", "value": 0.48}, {"measurement": "relative viability", "setting": "[2]; first compound 6.325 µM", "value": 0.177}]}
{"cell line": "NCI-H2009", "values": [{"measurement": "relative viability", "setting": "[1]; first compound 0.2 µM", "value": 1.24}, {"measurement": "relative viability", "setting": "[1]; first compound 0.6325 µM", "value": 1.07}, {"measurement": "relative viability", "setting": "[1]; first compound 2 µM", "value": 1.18}, {"measurement": "relative viability", "setting": "[1]; first compound 6.325 µM", "value": 1.07}, {"measurement": "relative viability", "setting": "AZD6482 + Bortezomib; first compound 0.08 µM", "value": 0.985}, {"measurement": "relative viability", "setting": "AZD6482 + Bortezomib; first compound 0.253 µM", "value": 1.04}, {"measurement": "relative viability", "setting": "AZD6482 + Bortezomib; first compound 0.8 µM", "value": 1.04}, {"measurement": "relative viability", "setting": "AZD6482 + Bortezomib; first compound 2.53 µM", "value": 0.601}, {"measurement": "relative viability", "setting": "AZD6482 + Bortezomib; first compound 8 µM", "value": 0.783}, {"measurement": "relative viability", "setting": "AZD6482 + Linsitinib; first compound 0.08 µM", "value": 0.911}, {"measurement": "relative viability", "setting": "AZD6482 + Linsitinib; first compound 0.253 µM", "value": 1.18}, {"measurement": "relative viability", "setting": "AZD6482 + Linsitinib; first compound 0.8 µM", "value": 1.16}, {"measurement": "relative viability", "setting": "AZD6482 + Linsitinib; first compound 2.53 µM", "value": 0.68}, {"measurement": "relative viability", "setting": "AZD6482 + Linsitinib; first compound 8 µM", "value": 0.795}, {"measurement": "relative viability", "setting": "[2]; first compound 0.2 µM", "value": 0.703}, {"measurement": "relative viability", "setting": "[2]; first compound 0.6325 µM", "value": 0.706}, {"measurement": "relative viability", "setting": "[2]; first compound 2 µM", "value": 0.691}, {"measurement": "relative viability", "setting": "[2]; first compound 6.325 µM", "value": 0.631}]}
